{"source": "patent US7968526B2", "about": "“Antisense oligonucleotides directed to ribonucleotide reductase R2 and uses thereof in the treatment of cancer” (Lorus Therapeutics Inc., priority 2003, dated 2011)", "assay_type_in_all_cases": "in vivo, human cells in mice", "key": {"[1]": {"test_system": "HT-29 human colon cancer cells", "test": "HT-29 colon tumour growth in CD-1 nude mice, SEQ ID NO:1 alone (3.1)", "protocol": "Treatments lasted for 14 days thereafter. Antitumour activities were estimated by the inhibition of tumour volume, which was measured with a caliper on four different occasions over the treatment period. Each point represents mean tumour volume calculated from 5 animals per experimental group. […] Control animals (control) received saline alone for the same period. At the end of the treatments, the animals were sacrificed, tumours were excised and their weights were measured. Each bar represents mean tumour weight calculated from 6 animals per experimental group. […] Treatments lasted for 24 days thereafter. Antitumour activities were estimated by the inhibition of tumour volume, which was measured with a caliper at two-day intervals over the treatment period. Each point represents mean tumour volume calculated from 4 animals per experimental group. […] Treatments lasted for 24 days thereafter. Antitumour activities were estimated by the inhibition of tumour volume, which was measured with a caliper at two-day intervals over the treatment period. Each point represents mean tumour volume calculated from 4 animals per experimental group. […] Treatments lasted for 22 days thereafter. […] Each point represents mean tumour volume calculated from 5 animals per experimental group. […] Treatments lasted for 14 days thereafter. Antitumour activities were estimated by the inhibition of tumour volume, which was measured with a caliper on four different occasions over 16-day period. Each point represents mean tumour volume calculated from 5 animals per experimental group. […] Two different batches of SEQ ID NO:1, synthesized at different times (designated as batch 1 and batch 2), were tested to detect possible batch-specific effects. […] Treatments lasted for 34 days thereafter. Antitumour activities were estimated by the inhibition of tumour volume, which was measured with a caliper at two-day intervals over the treatment period. Each point represents mean tumour volume calculated from 5 animals per experimental group. […] Treatments lasted for 30 days thereafter. Antitumour activities were estimated by the inhibition of tumour volume, which was measured with a caliper at various time intervals over the span of 30 days. Each point represents mean tumour volume calculated from 6 animals per experimental group. […] All treatments were stopped at day 36. Antitumour activities were estimated by the inhibition of tumour volume, which was measured with a caliper. Each point represents mean tumour volume calculated from 5 animals per experimental group. […] All treatments were stopped at day 52. Mice treated with saline or one of the three chemotherapeutic agents were sacrificed at day 80 because the tumour became too large. Mice treated with SEQ ID NO:1 were kept for 16 days further to observe possible resurgence of resistant tumour growth. Antitumour activities were estimated by the inhibition of tumour volume, which was measured with a caliper."}, "[2]": {"test_system": "Caki-1 human renal cancer cells", "test": "Caki-1 renal tumour xenograft, combination with 5-FU or vinblastin (1.3)", "from_the_text": "All treatments were stopped at day 22. […] All treatments were stopped at day 32. […] All treatments were stopped at day 36."}, "[3]": {"test_system": "A498 human kidney cancer cells", "test": "A498 kidney tumour growth in SCID mice (3.9)", "protocol": "Treatments lasted for 14 days thereafter. Antitumour activities were estimated by the inhibition of tumour volume, which was measured with a caliper on four different occasions over the treatment period. Each point represents mean tumour volume calculated from 5 animals per experimental group. […] Control animals (control) received saline alone for the same period. At the end of the treatments, the animals were sacrificed, tumours were excised and their weights were measured. Each bar represents mean tumour weight calculated from 6 animals per experimental group. […] Treatments lasted for 24 days thereafter. Antitumour activities were estimated by the inhibition of tumour volume, which was measured with a caliper at two-day intervals over the treatment period. Each point represents mean tumour volume calculated from 4 animals per experimental group. […] Treatments lasted for 24 days thereafter. Antitumour activities were estimated by the inhibition of tumour volume, which was measured with a caliper at two-day intervals over the treatment period. Each point represents mean tumour volume calculated from 4 animals per experimental group. […] Each point represents mean tumour volume calculated from 5 animals per experimental group. […] Antitumour activities were estimated by the inhibition of tumour volume, which was measured with a caliper on four different occasions over 16-day period. […]"}, "[4]": {"test_system": "MDA-MB-231 human breast cancer cells", "test": "MDA-MB-231 breast tumour xenograft in CD-1 nude mice, combination with taxol or doxorubicin (1.7)", "conditions": "doxorubicin 5 mg/kg i.v. weekly", "protocol": "After 52 days the mice were sacrificed and the tumours weighed. […] Mitoxantrone was administered intravenously once at the beginning of the treatments at a dose of 2 mg/kg (FIG. 4A) or once a week for four weeks at a reduced dose of 0.8 mg/kg (FIG. 4B). All treatments were stopped at day 50 (FIG. 4A) or 48 (FIG. 4B), respectively. […] Mitoxantrone was administered intravenously once at the beginning of the treatments at a dose of 2 mg/kg (FIG. 5A) or once a week for four weeks at a reduced dose of 0.8 mg/kg (FIG. 5B). All treatments were stopped at day 42 (FIG. 5A) or 38 (FIG. 5B), respectively. […] A2058 is a metastatic melanoma cell line. […] All treatments were stopped at day 24. […] Taxol was administered intravenously once a week at a dose of 10 mg/kg for three (FIG. 7A) or four weeks (FIG. 7C). Doxorubicin was administered intravenously once a week at a dose of 5 mg/kg for first three weeks (FIG. 7A) or for two weeks (FIG. 7C). All treatments were stopped at day 33 (FIG. 7A) or at day 26 (FIG. 7C), respectively. […] In FIG. 7C, antitumour activities were estimated by the inhibition of tumour volume, which was measured with calipers. Each point represents mean tumour volume calculated from 10 animals per experimental group. […] Taxol was administered intravenously once a week for first three weeks and intraperitoneally once a week for next two weeks at a dose of 10 mg/kg. Cisplatin was administered intravenously once a week for first three weeks and intraperitoneally once a week for next two weeks at a dose of 4 mg/kg. All treatments were stopped at day 40. Antitumour activities were estimated by the inhibition of tumour volume, which was measured with caliper. Each point represents mean tumour volume calculated from 9 animals per experimental group."}}, "note": "“Also recorded” adds a separate entry of the source."}
{"substance": "5′-GGCTAAATCGCTCCACCAAG-3′ (all phosphorothioate, sugars by position and methylation of C not given here) [SEQ ID NO: 1, fully phosphorothioated antisense oligonucleotide that hybridizes to the coding region of R2 mRNA]", "values": [{"measurement": "Inhibitory effect on tumour growth (tumour volume, FIG. 17A)", "setting": "[1]; HT-29, CD-1 nude mice, 10 mg/kg i.v. every other day, 14 days", "value": "statistically significant inhibitory effects"}, {"measurement": "Inhibitory effect on tumour growth (tumour weight, FIG. 17B)", "setting": "[1]; HT-29, CD-1 nude mice, 0.4-6.0 mg/kg i.v. every other day for 14 days", "value": "statistically significant inhibitory effects on the growth of human colon adenocarcinoma in a dose-dependent manner"}, {"measurement": "Inhibition of tumour weight", "setting": "[1]; Human Colon Adenocarcinoma", "value": "~80", "unit": "%"}, {"measurement": "Inhibition of tumour size", "setting": "[1]; Human Colon Adenocarcinoma in CD-1 nude mice, Day 18 after tumour implantation", "value": "approximately 80% on Day 18 after tumour"}, {"measurement": "Dose dependence of tumour weight", "setting": "[1]; in vivo", "value": "Dose-dependent decrease in tumour weight in"}, {"measurement": "Tumour weight as % of saline control", "setting": "[2]; Caki (renal), CD-1 mouse as printed, SEQ ID NO:1 10 mg/kg i.v. every other day, 5-FU 13 mg/kg/day i.p., vinblastin 0.6 mg/kg/week i.p.", "value": 3.3, "unit": "%"}, {"measurement": "Antitumour effect (tumour weight, FIG. 3A)", "setting": "[2]; Caki-1, SCID mice, SEQ ID NO:1 10 mg/kg i.v. every other day, 5-FU 13 mg/kg/day i.p., vinblastin 0.6 mg/kg/week i.p.", "value": "significant delay of tumour growth compared to saline control; also recorded: superior to the inhibitory effects observed with each of two chemotherapeutic compounds"}, {"measurement": "Inhibition of tumour size", "setting": "[2]; Human Renal Carcinoma^2 (second entry of Table 5)", "value": "Approximately 97% inhibition of tumour size"}, {"measurement": "Inhibitory effect on tumour growth (tumour volume, FIG. 21B)", "setting": "[3]; A498, SCID mice, 10 mg/kg i.v. every other day to day 52", "value": "powerful inhibitory effects on the growth of human renal carcinoma cells, resulting in total regression of the tumours"}, {"measurement": "Tumour regression", "setting": "[3]; Human Renal Carcinoma^2 (third entry of Table 5)", "value": "Complete regression of all tumours in treated"}, {"measurement": "Tumour weight as % of saline control", "setting": "[4]; MDA-MB-231 (breast), CD-1, SEQ ID NO:1 10 mg/kg i.v. every other day, Taxol 10 mg/kg i.v. weekly", "value": 12.6, "unit": "%"}, {"measurement": "Antitumour effect (tumour weight / volume, FIG. 7)", "setting": "[4]; MDA-MB-231, CD-1 nude mice, oligonucleotides 10 mg/kg i.v. every other day, taxol 10 mg/kg", "value": "delay of tumour growth compared to saline control in all three experiments; also recorded: superior to the inhibitory effects observed with taxol or doxorubicin alone"}]}
